Results: patent US12377069B2, “Compounds, compositions, methods of using, and methods for preparing compounds” (UNIVERSITY OF LOUISVILLE RESEARCH FOUNDATION, INC., priority 2018, dated 2025)
Each block holds one compound with its values, some of them ahead of it.

How the values were obtained:
[1] = tested on: mouse bone marrow derived macrophages (BMDMs); experiment: LPS-induced IL-6 and TNF-α in BMDM; type: cell-based; settings: LPS 50 ng/mL, six hours; compared UroA
Experimental: Measurements of IL-6 and TNF-α in BMDM: BMDM were plated in 96 (10,000 cells/well) and 12 wells (0.1×10^6 cells/well) plate for ELISA and RNA isolation. To evaluate the anti-inflammatory properties, BMDMs were stimulated with E. coli-derived lipopolysaccharides (LPS; 055:B5; Sigma) at 50 ng/mL concentration for six hours alone or in combination with UroA or UAS03 at indicated concentrations (0.01, 0.1, 1, 10, 25, 50 μM) in quadruplicates. For cytokine production via ELISA, the supernatant was collected and centrifuged at 10,000×g for 10 min at 4° C. to pellet down any cell and cytokines were quantified using IL-6 and TNF-α specific ELISA kit (Biolegend) following manufacturer's instruction.
Screening for anti-inflammatory activities: Mouse bone marrow derived macrophages (BMDM) were plated in 96 wells plate for ELISA. To evaluate the anti-inflammatory properties, BMDMs were stimulated with E. coli-derived lipopolysaccharides (LPS; 055:B5; Sigma) at 50 ng/mL concentration for six hours alone or in combination with compounds at indicated concentrations in quadruplicates. For cytokine production via ELISA, the supernatant was collected and centrifuged at 12,000 rpm for 10 min at 4° C. to pellet down any cell and cytokines were quantified using IL-6 and TNF-α specific ELISA kit (Biolegend) following manufacturer's instruction. LPS induced IL-6 or TNF-α considered as 100%.

AhR = AhR reporter (XRE-luciferase) assay; type: cell-based, human; settings: 6 h, over vehicle
Experimental: AhR Reporter assay: AhR-reported assay was performed using AhR Reporter Assay system (Indio Biosciences). The AhR Reporter cells (expressing luciferase under AhR promoter) as well as positive control MeBio (AhR ligand) compound were provided in the kit. The cells were treated with Vehicle or UroA or UAS03 or ellagic acid or MeBio for 6 hr and luminoscence was measured according to manufacture's instructions.

Cyp1A1 [2] = experiment: Cyp1A1 enzyme activity in colon and liver microsomes of treated mice; type: in vivo, mouse; settings: 1 week; for Cyp1A1 activity in liver compared to oral UroA/UAS03: i.p. daily
Experimental: Measurements of Cyp1A1 enzyme activity (Ex vivo): Mice were treated with Vehicle or UroA or UAS03, BNF or FICZ daily for one week at indicated concentration either through oral or i.p. route. After one week, mice were euthanized and the colon and liver tissues were dissected. Microsomes from these tissues were prepared using the following procedure (SINGH et al., (2013) “Evaluation of memory enhancing clinically available standardized extract of Bacopa monniera on P-glycoprotein and cytochrome P450 3A in Sprague-Dawley rats” PloS one, Vol. 8, Article e72517). For hepatic microsomes, liver was first perfused with 0.9% sodium chloride solution and excised out. Adhering blood and saline was removed by blotting on tissue paper and tissue was homogenized in tissue homogenization buffer (50 mM Tris-HCl, pH 7.4 with 250 mM sucrose). Homogenate was centrifuged at 10,000×g for 30 minutes at 4° C. supernatant obtained was further centrifuged at 105,000×g for 60 minutes at 4° C. The pellet was washed with homogenization buffer and centrifuged again at 105,000×g for 60 minutes at 4° C. The pellet was suspended in homogenization buffer and used for protein and CYP assay. For intestinal microsome preparation, intestine was removed and washed with 0.9% sodium chloride. The intestine was longitudinally cut open to expose mucosal layer and mucosa was scrapped with help of glass slide. The scraped tissue was collected in homogenization buffer (50 mM Tris-HCl buffer containing glycerol (20% v/v), protease inhibitor (1%) and heparin (3 U/ml)). This suspended mucosa was homogenized and centrifuged at 10,000×g for 20 minutes at 4° C. Supernatant obtained was further centrifuged at 105,000×g for 60 minutes at 4° C. The pellet was washed with buffer and centrifuged again at 105,000×g for 60 minutes at 4° C. The pellet was suspended homogenization buffer and used for protein and CYP enzymes assays.
Ethoxyresorufin-O-deethylase (EROD) assay: The microsomal proteins (0.5 mg) were mixed with 200 μL Tris buffer (0.1 M, pH 7.4) containing ethoxyresorufin (0.01 mM). To start reaction, NADPH (0.1 mM) was added and incubated at 37° C. for 10 min. After 10 min, reaction was terminated by adding equal volume of acetonitrile and reaction mixture was centrifuged at 13000×g for 10 min at 4° C. Supernatant was used to determine resorufin by measuring fluorescence (Ex. 530 nm, Em. 580 nm). Pure resorufin (Sigma Aldrich) was used to generate standard curve.
P450-Glo Cyp1A1 luminiscence assay: The above microsomes (20 μg) were used for P450-Glo Cyp1A1 luminiscence assays as per manufacturer's instructions.

Cyp1A1 [3] = experiment: Cyp1A1 expression and enzyme activity in vitro (P450-Glo, EROD); type: cell-based, human; settings: HT29, 24 h; P450-Glo and EROD
Experimental: Measurment of Cyp1A1 enzyme activities in vitro. EROD assay: HT-29 cells (15,000 cells/well) treated with vehicle, UroA and UAS03 (24 hrs), were rinsed with HBSS buffer, and then fresh HBSS buffer was added along with 5 μM of 7-ethoxyresorufin. Cells were further incubated at 37° C. for 1 h. After the incubation time, fluorescence (Exc. 530 nm, Em. 580 nm) was measured and product (resorufin) formed was calculated from calibration standard and normalized with protein concentration.
P450-Glo Cyp1A1 luminiscence assay: HT29 cells (25,000 cells/well) were plated in 48 well plate. Cell were then treated with UroA (0.1, 1, 10, 25 and 50 μM) or UAS03 (0.1, 1, 10, 25 and 50 μM) or FICZ (0.1, 1, 10, 25 and 50 nM) for 24 hrs. After treatment, cells were washed to remove any residual drugs, and fresh medium containing Cyp1A1 substrate (as per protocol provided with kit Cat. #V8751; Promega) for 3 hr. After incubation, 25 μl of culture medium was removed from each well and transferred to a 96-well white opaque plate and 25 μl of luciferin detection reagent was added to initiate the luminescence reaction and plate was incubated at room temperature for 20 min. After incubation, luminescence was recorded in luminometer. The data reported as fold change over vehicle treatment.

[4] = tested on: colon cancer cell line (SW480); experiment: Proliferation assay with 5FU; settings: Homo sapiens
[5] = i.p., UroA/UAS03 5 mg/kg/day, FICZ 1 μg/mouse/day
[6] = SW480, read-out: cell viability

Compound: O=C1C(=O)c2cc(O)ccc2-c2ccc(O)cc21 [PKL4]
- anti-inflammatory activities (LPS-induced IL-6 and TNF-α), analogue screening [1]: effective anti-inflammatory compounds

- induction of luciferase activity (AhR activation) (AhR): ~15 fold
Compound: MeBio

- Cyp1A1 activity in liver compared to oral UroA/UAS03 (Cyp1A1 [2]): more Cyp1A1 activity in liver
- Cyp1A1 activity increase in colons (Cyp1A1 [2]; [5]): ~5 fold
- Cyp1A1 enzyme activity induction in liver (Cyp1A1 [2]; [5]): ~30 fold
Compound: O=Cc1c2c(cc3c1=Nc1ccccc1-3)=Nc1ccccc1-2 [FICZ, 6-Formylindolo[3,2-b]carbazole, reference compound]
- Cyp1A1 enzyme activity in colon epithelial cells (Cyp1A1 [3]): increased Cyp1A1 activity even at nano molar concentrations

Compound: Clc1cc2c(cc1Cl)Oc1cc(Cl)c(Cl)cc1O2 [TCDD, 2,3,7,8-tetrachlorodibenzo-p-dioxin, reference compound]
- Cyp1A1 enzyme activity in colon epithelial cells (Cyp1A1 [3]): increased Cyp1A1 activity even at nano molar concentrations

Compound: COc1ccc2c(c1)C(=O)C(=O)c1cc(OC)ccc1-2 [PKL 3]
- anti-inflammatory activities (LPS-induced IL-6 and TNF-α), analogue screening [1]: effective anti-inflammatory compounds

- Cyp1A1 activity in liver compared to oral UroA/UAS03 (Cyp1A1 [2]): more Cyp1A1 activity in liver
Compound: O=c1cc(-c2ccccc2)oc2ccc3ccccc3c12 [BNF, beta-naphthoflavone, reference compound]

Compound: O=C1/C(=N/C23CC4CC(CC(C4)C2)C3)c2cc(O)ccc2-c2ccc(O)cc21 [PKL 17]
- anti-inflammatory activities (LPS-induced IL-6 and TNF-α), analogue screening [1]: effective anti-inflammatory compounds

Compound: O=c1[nH]cc(F)c(=O)[nH]1 [5FU, 5-Fluoro-1H,3H-pyrimidine-2,4-dione, reference compound]
- viability at 3.12 µM [4, 6]: 90%
- viability at 25 µM [4, 6]: 63%
- inhibition at 100 µM ([4]; SW480, read-out: maximum inhibition of cancer cell growth): ≤ 60%
